Data on 15 compounds can be found in patent US20260108527A1, “POLO LIKE KINASE 4 INHIBITORS” (ORIC Pharmaceuticals, Inc., priority 2022, published 2026).

One test concerns the target T1, human recombinant PLK4 (Homo sapiens, UniProt O00444).
T1 construct: purchased ThermoFisher PV6396
T1 sequence (O00444 1-970): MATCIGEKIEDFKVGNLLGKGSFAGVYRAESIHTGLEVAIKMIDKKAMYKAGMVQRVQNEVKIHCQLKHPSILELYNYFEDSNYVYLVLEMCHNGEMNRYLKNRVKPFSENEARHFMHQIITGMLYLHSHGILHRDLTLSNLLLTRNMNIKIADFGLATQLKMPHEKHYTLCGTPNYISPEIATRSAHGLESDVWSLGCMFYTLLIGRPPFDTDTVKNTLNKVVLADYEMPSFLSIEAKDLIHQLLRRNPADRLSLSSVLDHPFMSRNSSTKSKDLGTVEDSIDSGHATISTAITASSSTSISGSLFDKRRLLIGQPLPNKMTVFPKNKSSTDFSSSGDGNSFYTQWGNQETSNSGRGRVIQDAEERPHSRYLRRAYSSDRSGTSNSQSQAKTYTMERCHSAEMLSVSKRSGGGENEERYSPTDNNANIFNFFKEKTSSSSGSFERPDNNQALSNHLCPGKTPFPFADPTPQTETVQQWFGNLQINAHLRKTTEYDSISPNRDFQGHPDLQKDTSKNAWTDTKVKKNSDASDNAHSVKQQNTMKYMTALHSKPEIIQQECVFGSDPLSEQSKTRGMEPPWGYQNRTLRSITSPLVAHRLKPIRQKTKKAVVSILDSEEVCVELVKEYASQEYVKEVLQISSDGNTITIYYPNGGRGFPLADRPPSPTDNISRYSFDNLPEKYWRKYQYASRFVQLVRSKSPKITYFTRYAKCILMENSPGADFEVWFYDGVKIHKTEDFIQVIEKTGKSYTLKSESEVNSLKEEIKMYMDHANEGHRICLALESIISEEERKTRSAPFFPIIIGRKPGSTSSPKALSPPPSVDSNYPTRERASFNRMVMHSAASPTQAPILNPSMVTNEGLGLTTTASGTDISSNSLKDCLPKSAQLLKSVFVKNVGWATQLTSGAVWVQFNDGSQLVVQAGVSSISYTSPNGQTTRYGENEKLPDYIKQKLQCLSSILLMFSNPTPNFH
The test is described as follows: PLK4 Biochemical Assay (ADP-Glo). To be noted: 0.5 nM PLK4, 8.0 μM ATP, 4.7 μM MBP, 6 hours at RT. Here is the method:
Activity of human recombinant PLK4 (ThermoFisher, cat #PV6396) was measured by quantification of adenosine diphosphate (ADP) using the ADP-Glo Kinase Assay Kit (Promega, cat #V9102). […] 5 μL of 1.0 nM PLK4 protein in assay buffer (50 mM HEPES, pH 7.5, 0.01% Brij-35, 0.01% BSA, 10 mM MgCl2, 1 mM EGTA, 1 mM DTT) was added to the plates. Test compounds and PLK4 were incubated for 15 minutes at room temperature (RT). […] Reactions were stopped and the remaining ATP depleted by adding 10 μL of ADP-Glo reagent (Promega, cat #V912B) and incubating for 40 minutes at RT. The simultaneous conversion of the remaining ADP to ATP and measurement of the newly synthesized ATP was achieved by addition of 20 μL Kinase Detection reagent (Promega, cat #V914B), incubation for 30 min at RT, and luminescence detection using the EnVision plate reader (PerkinElmer). […] The IC50 values reported in Table 2 were determined using four parameter non-linear regression curve fit.
(In general: In ADP-Glo the light output rises with the ADP produced.)

The target of test [1] is T2, human recombinant Aurora B (Homo sapiens, UniProt Q96GD4).
T2 construct: purchased ThermoFisher PR9210B
T2 sequence (Q96GD4 whole entry): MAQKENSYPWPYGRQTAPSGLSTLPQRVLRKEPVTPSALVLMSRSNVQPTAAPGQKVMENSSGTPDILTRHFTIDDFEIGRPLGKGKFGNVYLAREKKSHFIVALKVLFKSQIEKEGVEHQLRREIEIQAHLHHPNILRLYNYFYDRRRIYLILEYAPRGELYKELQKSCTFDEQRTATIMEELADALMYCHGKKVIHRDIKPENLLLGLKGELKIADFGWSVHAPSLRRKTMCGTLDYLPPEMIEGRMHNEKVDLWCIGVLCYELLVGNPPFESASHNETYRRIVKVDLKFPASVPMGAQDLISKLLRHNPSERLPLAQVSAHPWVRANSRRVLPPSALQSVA
The test is described as follows: Aurora B Kinase Biochemical Assay (ADP-Glo). The settings on record: selectivity ratio; Aurora B 10 nM, 114 μM ATP. Here is the method: Activity of human recombinant Aurora B (ThermoFisher, cat #PR9210B) was measured by quantification of adenosine diphosphate (ADP) using the ADP-Glo Kinase Assay Kit (Promega, cat #V9102). Test compounds were solubilized in dimethyl sulfoxide (DMSO) and dispensed into 384-well white polystyrene nonbinding plates (Greiner, cat #781094) using the Echo acoustic dispenser (Labcyte Inc.) in a 11-point 3-fold titration in duplicates. 5 μL of 20 nM Aurora B in assay buffer (50 mM HEPES, pH 7.5, 0.01% Brij-35, 0.01% BSA, 10 mM MgCl2, 1 mM EGTA, 1 mM DTT) was added to the plates. Test compounds and Aurora B were incubated for 15 minutes at room temperature (RT). Then 5 μL of a 228 μM adenosine triphosphate (ATP) (Promega, cat #V915B) and 9.3 μM Myelin Basic Protein (MBP) (SignalChem, cat #M42-51N) substrate solution in assay buffer was added and the reaction mixture was incubated for 2 hours at RT. The final concentration of Aurora b, ATP and MBP in the reactions were 10 nM, 114 μM and 4.7 μM, respectively. Reactions were stopped and the remaining ATP depleted by adding 10 μL of ADP-Glo reagent (Promega, cat #V912B) and incubating for 40 minutes at RT. The simultaneous conversion of the remaining ADP to ATP and measurement of the newly synthesized ATP was achieved by addition of 20 μL Kinase Detection reagent (Promega, cat #V9141B), incubation for 30 min at RT, and luminescence detection using the EnVision plate reader (PerkinElmer). Reactions lacking Aurora B were used as […]. Reactions containing DMSO alone were used as […]. The IC50 values reported in Table 2 were determined using four parameter non-linear regression curve fit.

pIC50: −log10 of the molar value.

The term pIC50 denotes the negative decadic logarithm of the IC50, by convention in mol/L. As to `COc1ccc2c(c1)[C@]1(C[C@H]1c1ccc3c(Nc4cc5c(cc4OC)S(=O)(=O)C=C5)n[nH]c3c1)C(=O)N2` [Example 6, 6-methoxy-5-({6-[(1R,2S)-5′-methoxy-2′-oxo-1′,2′-dihydrospiro[cyclopropane-1,3′-indol]-2-yl]-1H-indazol-3-yl}amino)-1H-1-benzothiophene-1,1-dione], the negative logarithm of the IC50 (pIC50) at human recombinant PLK4 was 9.02. The “[Aurora B IC50 (nM)]/[PLK4 IC50 (nM)]” value in test [1] turned out to be 427.6412.

Consider `COc1ccc2c(c1)[C@]1(C[C@H]1c1ccc3c(Nc4nc(N(C)C)ncc4OC)n[nH]c3c1)C(=O)N2` [Example 20, (1R,2S)-2-(3-{[2-(dimethylamino)-5-methoxypyrimidin-4-yl]amino}-1H-indazol-6-yl)-5′-methoxyspiro[cyclopropane-1,3′-indol]-2′(1′H)-one], for which the pIC50 on human recombinant PLK4 was 8.55. In test [1], the “[Aurora B IC50 (nM)]/[PLK4 IC50 (nM)]” value is reported as 120.

Turning to `CCOc1ncc(-c2nccs2)cc1Nc1n[nH]c2cc([C@@H]3C[C@@]34C(=O)Nc3ccc(OC)cc34)ccc12` [Example 41, (1R,2S)-2-(3-{[2-ethoxy-5-(1,3-thiazol-2-yl)pyridin-3-yl]amino}-1H-indazol-6-yl)-5′-methoxyspiro[cyclopropane-1,3′-indol]-2′(1′H)-one], the pIC50 on human recombinant PLK4 is 9.14. The “[Aurora B IC50 (nM)]/[PLK4 IC50 (nM)]” value in test [1] is given as 8707.7562.

As for `COc1ccc2c(c1)[C@]1(C[C@H]1c1ccc3c(Nc4cc(-c5cnn(C)c5)ccc4OC)n[nH]c3c1)C(=O)N2` [Example 11, (1R,2S)-5′-methoxy-2-{3-[2-methoxy-5-(1-methyl-1H-pyrazol-4-yl)anilino]-1H-indazol-6-yl}spiro[cyclopropane-1,3′-indol]-2′(1′H)-one], the negative-log IC50 (pIC50) on human recombinant PLK4 is 9.28. Further, the “[Aurora B IC50 (nM)]/[PLK4 IC50 (nM)]” value in test [1] stood at 1051.5384.

In the case of `COc1ccc2c(c1)[C@]1(C[C@H]1c1ccc3c(Nc4cc(-c5cscn5)ccc4OC)n[nH]c3c1)C(=O)N2` [Example 15, (1R,2S)-5′-methoxy-2-{3-[2-methoxy-5-(1,3-thiazol-4-yl)anilino]-1H-indazol-6-yl}spiro[cyclopropane-1,3′-indol]-2′(1′H)-one], the pIC50 at human recombinant PLK4 is 9.19. For the same compound, the “[Aurora B IC50 (nM)]/[PLK4 IC50 (nM)]” value in test [1] is listed as 511.8461.

As for `CCOc1ccc(-c2nccs2)cc1Nc1n[nH]c2cc([C@@H]3C[C@@]34C(=O)Nc3ccc(OC)cc34)ccc12` [Example 33, (1R,2S)-2-{3-[2-ethoxy-5-(1,3-thiazol-2-yl)anilino]-1H-indazol-6-yl}-5′-methoxyspiro[cyclopropane-1,3′-indol]-2′(1′H)-one], the negative logarithm of the IC50 (pIC50) on human recombinant PLK4 is 9.12. Moreover, in test [1], the “[Aurora B IC50 (nM)]/[PLK4 IC50 (nM)]” value amounted to 45644.0903.

On to `CCOc1cnc(C#CC(C)(C)O)nc1Nc1n[nH]c2cc([C@@H]3C[C@@]34C(=O)Nc3ccc(OC)cc34)ccc12` [Example 45, (1R,2S)-2-(3-((5-ethoxy-2-(3-hydroxy-3-methylbut-1-yn-1-yl)pyrimidin-4-yl)amino)-1H-indazol-6-yl)-5′-methoxyspiro[cyclopropane-1,3′-indolin]-2′-one], for which the pIC50 on human recombinant PLK4 is 9.86. The “[Aurora B IC50 (nM)]/[PLK4 IC50 (nM)]” value in test [1] worked out at 8798.5611.

Regarding `COc1ccc2c(c1)[C@]1(C[C@H]1c1ccc3c(Nc4nc(-c5cnco5)ncc4OC)n[nH]c3c1)C(=O)N2` [Example 40, (1R,2S)-5′-methoxy-2-(3-{[5-methoxy-2-(1,3-oxazol-5-yl)pyrimidin-4-yl]amino}-1H-indazol-6-yl)spiro[cyclopropane-1,3′-indol]-2′(1′H)-one], on human recombinant PLK4, the pIC50 is 9.55. Besides, in test [1], the “[Aurora B IC50 (nM)]/[PLK4 IC50 (nM)]” value was 410.7334.

On to `COc1ccc2c(c1)[C@]1(C[C@H]1c1ccc3c(Nc4cc(-c5ccon5)ccc4OC)n[nH]c3c1)C(=O)N2` [Example 32, (1R,2S)-5′-methoxy-2-{3-[2-methoxy-5-(1,2-oxazol-3-yl)anilino]-1H-indazol-6-yl}spiro[cyclopropane-1,3′-indol]-2′(1′H)-one], for which, on human recombinant PLK4, the pIC50 is 9.08. In addition, the “[Aurora B IC50 (nM)]/[PLK4 IC50 (nM)]” value in test [1] was found to be 1218.8633.

As to `CCOc1cc2c(ccc[n+]2[O-])cc1Nc1n[nH]c2cc([C@@H]3C[C@@]34C(=O)Nc3ccc(OC)cc34)ccc12` [Example 12, 7-ethoxy-6-((6-((1R,2S)-5′-methoxy-2′-oxospiro[cyclopropane-1,3′-indolin]-2-yl)-1H-indazol-3-yl)amino)quinoline 1-oxide], on human recombinant PLK4, the pIC50 was 8.51. The “[Aurora B IC50 (nM)]/[PLK4 IC50 (nM)]” value in test [1] was 810.

Consider `CCOc1ncc(-c2nccs2)nc1Nc1n[nH]c2cc([C@@H]3C[C@@]34C(=O)Nc3ccc(OC)cc34)ccc12` [Example 35, (1R,2S)-2-(3-{[3-ethoxy-6-(1,3-thiazol-2-yl)pyrazin-2-yl]amino}-1H-indazol-6-yl)-5′-methoxyspiro[cyclopropane-1,3′-indol]-2′(1′H)-one], for which the pIC50 at human recombinant PLK4 was 9.47. Also, the “[Aurora B IC50 (nM)]/[PLK4 IC50 (nM)]” value in test [1] was 2740.5325.

With `CCS(=O)(=O)c1ccc(Nc2n[nH]c3cc([C@@H]4C[C@@]45C(=O)Nc4ccc(OC)cc45)ccc23)c(OC)c1` [Example 5, (1R,2S)-2-{3-[4-(ethanesulfonyl)-2-methoxyanilino]-1H-indazol-6-yl}-5′-methoxyspiro[cyclopropane-1,3′-indol]-2′(1′H)-one], at human recombinant PLK4, the pIC50 was 9.15. The “[Aurora B IC50 (nM)]/[PLK4 IC50 (nM)]” value in test [1] came to 238.2702.

Regarding `CCOc1cnc(-c2nccs2)cc1Nc1n[nH]c2cc([C@@H]3C[C@@]34C(=O)Nc3ccc(OC)cc34)ccc12` [Example 34, (1R,2S)-2-(3-{[5-ethoxy-2-(1,3-thiazol-2-yl)pyridin-4-yl]amino}-1H-indazol-6-yl)-5′-methoxyspiro[cyclopropane-1,3′-indol]-2′(1′H)-one], the pIC50 on human recombinant PLK4 was 8.97. Moreover, the “[Aurora B IC50 (nM)]/[PLK4 IC50 (nM)]” value in test [1] was 46598.3224.

In the case of `CCOc1ccc(-c2cnn(C)c2)cc1Nc1n[nH]c2cc([C@@H]3C[C@@]34C(=O)Nc3ccc(OC)cc34)ccc12` [Example 37, (1R,2S)-2-{3-[2-ethoxy-5-(1-methyl-1H-pyrazol-4-yl)anilino]-1H-indazol-6-yl}-5′-methoxyspiro[cyclopropane-1,3′-indol]-2′(1′H)-one], at human recombinant PLK4, the pIC50 is 8.75. Moreover, the “[Aurora B IC50 (nM)]/[PLK4 IC50 (nM)]” value in test [1] was found to be 27839.6436.

With `COc1ccc2c(c1)[C@]1(C[C@H]1c1ccc3c(Nc4nc(-c5ncco5)cnc4OC)n[nH]c3c1)C(=O)N2` [Example 19, (1R,2S)-5′-methoxy-2-(3-{[3-methoxy-6-(1,3-oxazol-2-yl)pyrazin-2-yl]amino}-1H-indazol-6-yl)spiro[cyclopropane-1,3′-indol]-2′(1′H)-one], at human recombinant PLK4, the pIC50 is 9.00. For the same compound, the “[Aurora B IC50 (nM)]/[PLK4 IC50 (nM)]” value in test [1] is 460.
